The values below come from patent US11371077B2, “High throughput cell-based screening for aptamers” (MeiraGTx UK II Limited, priority 2016, dated 2022).

Counter-ions that a name gives are not always drawn. Like-named read-outs stand apart in the source and are kept apart here.

What all share (format): cell-based
The subject of one series is gdg6-A8 riboswitch. The series can be described thus: Luciferase reporter assay, gdg6-A8 riboswitch, transfected HEK 293 cells. The following applies: for fold induction at 100 µM: Homo sapiens, HEK293. An excerpt: (§1) Riboswitches were constructed as described in PCT/US2016/016234 (in particular Examples 3 to 6), incorporated herein by reference. A truncated human beta-globin intron sequence was synthesized and inserted in the coding sequence of a firefly luciferase gene. A mutant human DHFR exon 2 was synthesized and inserted in the middle of this truncated beta-globin intron sequence using Golden gate cloning strategy. Aptamers including xpt-G/A^1, ydhl-G/A^2, yxj^3, add^4, gdg6-G/A^5 (citations for the aptamers are incorporated herein by reference) were synthesized as oligonucleotides (“oligos”) with 4 nucleotide overhang at the 5′ end that are complementary to two different BsaI sites individually (IDT), annealed and ligated to BsaI-digested mDHFR-Luci-acceptor vector.
(§2) 3.5×10^4 HEK 293 cells were plated in a 96-well flat bottom plate the day before transfection. Plasmid DNA (500 ng) was added to a tube or a 96-well U-bottom plate. Separately, TransIT-293 reagent (Mirus; 1.4 μL) was added to 50 μL Opti-mem I media (Life Technologies), and allowed to sit for 5 minutes at room temperature (RT). Then, 50 μL of this diluted transfection reagent was added to the DNA, mixed, and incubated at RT for 20 min. Finally, 7 μL of this solution was added to a well of cells in the 96-well plate.
(§3) 24 hours after media change, plates were removed from the incubator, and equilibrated to RT for several minutes on a lab bench, then aspirated. Glo-lysis buffer (Promega, 100 μL, RT) was added, and the plates maintained at RT for at least 5 minutes. Then, the well contents were mixed by 50 μL trituration, and 20 μL of each sample was mixed with 20 μL of bright-glo reagent (Promega) that had been diluted to 10% in glo-lysis buffer. 96 wells were spaced on an opaque white 384-well plate. Following a 5 min incubation at RT, luminescence was measured using a Tecan machine with 500 mSec read time. The luciferase activity was expressed as mean relative light unit (RLU)±S.D., and fold induction was calculated as the luciferase activity obtained with guanine treatment divided by luciferase activity obtained without guanine treatment.

The test system of the next series is xpt-G17 riboswitch. The series can be described thus: Luciferase reporter assay, xpt-G17 riboswitch, transfected HEK 293 cells. The following applies: for fold induction at 100 µM: HEK293, xpt-G17 riboswitch; for response of guanine riboswitch xpt-G17 to compound (FIG. 1e): Prestwick library at 100 μM; for Fold Induction of luciferase activity: 100 µM.
Text: (§4) A truncated human beta-globin intron sequence was synthesized and inserted in the coding sequence of a firefly luciferase gene. A mutant human DHFR exon 2 was synthesized and inserted in the middle of this truncated beta-globin intron sequence using Golden gate cloning strategy. Aptamers including xpt-G/A^1, ydhl-G/A^2, yxj^3, add^4, gdg6-G/A^5 (citations for the aptamers are incorporated herein by reference) were synthesized as oligonucleotides (“oligos”) with 4 nucleotide overhang at the 5′ end that are complementary to two different BsaI sites individually (IDT), annealed and ligated to BsaI-digested mDHFR-Luci-acceptor vector.
as §2, §3

The next series has as its system add-G6 riboswitch. Briefly: cells. To be noted: for fold induction at 100 µM: Homo sapiens.
Text: as §4
(§5) 3.5×10^4 HEK 293 cells were plated in a 96-well flat bottom plate the day before transfection. Plasmid DNA (500 ng) was added to a tube or a 96-well U-bottom plate. […] Then, 50 μL of this diluted transfection reagent was added to the DNA, mixed, and incubated at RT for 20 min. Finally, 7 μL of this solution was added to a well of cells in the 96-well plate.
as §3, with “The luciferase activity was expressed as mean relative light unit (RLU)±S.D., and fold induction was calculated as the luciferase activity obtained with guanine treatment divided by luciferase activity obtained without guanine treatment.” left out

A further series has as its system ydhl-G8 riboswitch. Briefly: Luciferase reporter assay, ydhl-G8 riboswitch, transfected HEK 293 cells. The following applies: Homo sapiens.
Text: as §4, §5, §3

A further series relates to gdg6-G8 riboswitch. Briefly: Luciferase reporter assay, gdg6-G8 riboswitch, transfected HEK 293 cells. The following applies: gdg6-G8 riboswitch, Prestwick library compounds at 100 μM, HEK 293; for fold induction at 100 µM: Homo sapiens, HEK293.
Text: as §1, §2, §3

Where [1] appears, read: gdg6-A8 riboswitch, Prestwick library compounds at 100 μM, HEK 293.
The mark [2] stands for this setting: Homo sapiens, Prestwick library compounds at 100 μM, HEK 293, preliminary screen.
Where [3] appears, read: HEK293, add-G6 riboswitch, Prestwick library compounds at 100 μM, HEK 293, read-out: Fold Induction of luciferase activity.
Setting [4] is: HEK293, read-out: Fold Induction of luciferase activity.
Setting [5] is: add-G6 riboswitch, Prestwick library compounds at 100 μM, HEK 293.

On to `CN/C(=N/CCSCc1nc[nH]c1C)NC#N` [Cimetidine], for which the fold induction at 100 µM with gdg6-A8 riboswitch (setting [1]) is 3. `COc1ccc2[nH]c([S+]([O-])Cc3ncc(C)c(OC)c3C)nc2n1` (stereo not shown) [Tenatoprazole] displayed a fold induction at 100 µM in the series on xpt-G17 riboswitch (setting [2]) of 3.2.

Turning to `C#C[C@]1(O)CC[C@H]2[C@@H]3CCC4=CCCC[C@@H]4[C@H]3CC[C@@]21C` [Lynestrenol], in the series on add-G6 riboswitch (setting [3]), the fold induction at 100 µM is 3.8. On the same count and under the same terms, the same measure for `CNCCCC1c2ccccc2C=Cc2ccccc21` [Protriptyline hydrochloride]: 5. On to `CCCCNc1ccc(C(=O)OCCN(C)C)cc1` [Tetracaine hydrochloride], for which the fold induction at 100 µM in the series with ydhl-G8 riboswitch (setting [4]) worked out at 3.6.

As to `CN1CCCC(n2nc(Cc3ccc(Cl)cc3)c3ccccc3c2=O)CC1` (stereo not shown) [Azelastine hydrochloride], the fold induction at 100 µM in the series on ydhl-G8 riboswitch (HEK293, ydhl-G8 riboswitch, Prestwick library compounds at 100 μM, HEK 293, read-out: Fold Induction of luciferase activity) came to 3. For `NC(=O)c1ccc[n+]([C@@H]2O[C@H](COP(=O)([O-])OP(=O)(O)OC[C@H]3O[C@@H](n4cnc5c(N)ncnc54)[C@H](O)[C@@H]3O)[C@@H](O)[C@H]2O)c1` [Nadide], the fold induction at 100 µM is approximately 40 with xpt-G17 riboswitch (setting [2]), 30.8 with add-G6 riboswitch (setting [3]) and 11.7 with ydhl-G8 riboswitch (setting [4]). In addition, the “response of guanine riboswitch xpt-G17 to compound (FIG. 1e)” value (“response of guanine riboswitch xpt-G17” below) with xpt-G17 riboswitch (preliminary screen) is given as “responded”. For the same compound, the “Fold Induction of luciferase activity” value in the series with xpt-G17 riboswitch (xpt-G17 riboswitch, Prestwick library compounds at 100 μM, HEK 293, preliminary screen) was found to be 40.9 fold. As to `O=C(OCCOCCO)c1ccccc1Nc1cccc(C(F)(F)F)c1` [Etofenamate], the fold induction at 100 µM was 7.5 with xpt-G17 riboswitch (setting [2]), 5.1 in the series on add-G6 riboswitch (setting [3]) and 4.8 in the series on ydhl-G8 riboswitch (setting [4]). On to `CC(=O)O[C@]1(C(C)=O)CC[C@H]2[C@@H]3C=C(Cl)C4=CC(=O)CC[C@]4(C)[C@H]3CC[C@@]21C` [Chlormadinone acetate], for which the fold induction at 100 µM in the series with xpt-G17 riboswitch (setting [2]) worked out at 10.3; with add-G6 riboswitch (setting [3]), 26.1; with ydhl-G8 riboswitch (setting [4]), 10.4. In addition, in the series with xpt-G17 riboswitch (preliminary screen), the “response of guanine riboswitch xpt-G17” value is “responded”. On to `CC(=O)O[C@]1(C(C)=O)CC[C@H]2[C@@H]3C=C(C)C4=CC(=O)CC[C@@H]4[C@H]3CC[C@@]21C` [Nomegestrol acetate], for which, in the series with add-G6 riboswitch (setting [3]), the fold induction at 100 µM was 3.5.

In the case of `O=C(COc1ccccc1)Nc1nc2nc[nH]c2c(=O)[nH]1` [N2-Phenoxyacetyl guanine], in the series with xpt-G17 riboswitch (Homo sapiens, HEK293, 24 h, xpt-G17 construct, 500 μM concentration, FIG. 1c, 1d, read-out: fold induction of luciferase activity by guanine analogs (N2 compounds)), the fold induction at 500 µM stood at 1300.

Regarding `CN(C)CCOC1=Cc2ccccc2Sc2ccc(Cl)cc21` [Zotepine], in the series on xpt-G17 riboswitch (setting [2]), the fold induction at 100 µM was 4.3.

As for `CC(C)COCC(CN(Cc1ccccc1)c1ccccc1)N1CCCC1` (stereo not shown) [Bepridil hydrochloride], in the series on add-G6 riboswitch (setting [3]), the fold induction at 100 µM stood at 4.4.

Take Avermectin B1: the “Fold Induction of luciferase activity” value with add-G6 riboswitch (setting [5]) worked out at 11.8 fold.

`O=C(Nc1ccccc1)OCC(CN1CCCCC1)OC(=O)Nc1ccccc1` (stereo not shown) [Diperodon hydrochloride] registered a fold induction at 100 µM in the series with gdg6-A8 riboswitch (setting [1]) of 3. Regarding Methotrimeprazine maleate salt, the “Fold Induction of luciferase activity” value in the series with gdg6-A8 riboswitch (100 µM) came out at 5.0 fold. On to `Nc1nc2nc[nH]c2c(=S)[nH]1` [Thioguanine], for which the “response of guanine riboswitch xpt-G17” value in the series with xpt-G17 riboswitch (preliminary screen) is recorded as “responded”. Turning to Tyloxapol, the “Fold Induction of luciferase activity” value with xpt-G17 riboswitch stood at 16.2 fold. Further, in the series on xpt-G17 riboswitch (preliminary screen), the “response of guanine riboswitch xpt-G17” value is recorded as “responded”. Regarding `C/C=C(/C(=C/C)c1ccc(O)cc1)c1ccc(O)cc1` [Dienestrol], the fold induction at 100 µM with gdg6-A8 riboswitch (setting [1]) amounted to 4.3. For the compound `C#C[C@]1(O)CC[C@H]2[C@@H]3CCC4=Cc5oncc5C[C@]4(C)[C@H]3CC[C@@]21C` [Danazol], the fold induction at 100 µM in the series with add-G6 riboswitch (setting [3]) is 3.7. `O=C(Nc1ccc([N+](=O)[O-])cc1Cl)c1cc(Cl)ccc1O` [Niclosamide]: the fold induction at 100 µM in the series with add-G6 riboswitch (setting [3]) stood at 3. Regarding Meclocycline sulfosalicylate, in the series with add-G6 riboswitch (setting [5]), the “Fold Induction of luciferase activity” value is reported as 3.4 fold. Consider `[H]/N=C(/N)NS(=O)(=O)c1ccc(N)cc1` [Sulfaguanidine], for which, in the series on ydhl-G8 riboswitch (setting [4]), the fold induction at 100 µM worked out at 13.9. In the series on gdg6-G8 riboswitch, `C[C@]12CC[C@@H]3c4ccc(O)cc4CC[C@H]3[C@@H]1C[C@@H](O)[C@@H]2O` [Estriol] came in with a fold induction at 100 µM of 4.3. As for `NC(=NCc1ccccc1)NC(=O)c1nc(Cl)c(N)nc1N` [Benzamil hydrochloride], in the series with add-G6 riboswitch (setting [3]), the fold induction at 100 µM was 3. `CC(C)(C)NC[C@H](O)COc1ccccc1C1CCCC1` [Penbutolol sulfate]: the fold induction at 100 µM with gdg6-G8 riboswitch was determined as 3.3. With `CNc1ncnc2c1ncn2[C@@H]1O[C@H](CO)[C@@H](O)[C@H]1O` [N6-methyladenosine], the fold induction at 100 µM in the series with xpt-G17 riboswitch (setting [2]) is 30.7; with add-G6 riboswitch (setting [3]), 20.8; with ydhl-G8 riboswitch (setting [4]), 10.7. The “response of guanine riboswitch xpt-G17” value in the series on xpt-G17 riboswitch (preliminary screen) was “responded”. Take `Clc1ccc(C(Cn2ccnc2)OCc2csc3c(Cl)cccc23)c(Cl)c1` (stereo not shown) [Sertaconazole Nitrate]: the fold induction at 100 µM with add-G6 riboswitch (setting [3]) was 6.5. Regarding `CC[C@@]1(O)C(=O)OCc2c1cc1n(c2=O)Cc2cc3ccccc3nc2-1` [Camptothecine (S, +)], the “Fold Induction of luciferase activity” value in the series with add-G6 riboswitch (setting [5]) came out at 5.7 fold. As to `Nc1ncnc2c1ncn2[C@@H]1O[C@H](COP(=O)(O)O)[C@@H](O)[C@H]1O.O` [Adenosine 5′-monophosphate monohydrate], the fold induction at 100 µM in the series with xpt-G17 riboswitch (setting [2]) turned out to be 28.4; with add-G6 riboswitch (setting [4]), 9.4; in the series on ydhl-G8 riboswitch (setting [4]), 5.9. Further, the “response of guanine riboswitch xpt-G17” value with xpt-G17 riboswitch (preliminary screen) was “responded”. For `Fc1ccc(C(c2ccc(F)cc2)N2CCN(C/C=C/c3ccccc3)CC2)cc1` [Flunarizine dihydrochloride], in the series with add-G6 riboswitch (setting [3]), the fold induction at 100 µM was determined as 4.7. Consider `CN1CCc2cccc3c2[C@H]1Cc1ccc(O)c(O)c1-3.CN1CCc2cccc3c2[C@H]1Cc1ccc(O)c(O)c1-3.Cl.Cl.O` [R(−)Apomorphine hydrochloride hemihydrate], for which, in the series with add-G6 riboswitch (setting [5]), the “Fold Induction of luciferase activity” value was determined as 3.4 fold. For the compound `CCC(=O)O[C@H]1CC[C@H]2[C@@H]3CCC4=CC(=O)CC[C@]4(C)[C@H]3CC[C@]12C` [Testosterone propionate], the figures for the fold induction at 100 µM in the series with xpt-G17 riboswitch (setting [2]) and in the series with add-G6 riboswitch (setting [4]) were 29 and 8.8, respectively. The “response of guanine riboswitch xpt-G17” value with xpt-G17 riboswitch (preliminary screen) is reported as “responded”. With `COC(=O)Nc1nc2ccc(SC(C)C)cc2[nH]1` [Methiazole], the “Fold Induction of luciferase activity” value is given as 3.8 fold with gdg6-A8 riboswitch (setting [1]) and 3.3 fold with gdg6-G8 riboswitch. Take `CC(=O)[C@H]1CC[C@H]2[C@@H]3CCC4=CC(=O)CC[C@]4(C)[C@H]3CC[C@]12C` [Progesterone]: the fold induction at 100 µM with xpt-G17 riboswitch (setting [2]) turned out to be 12; in the series on add-G6 riboswitch (setting [3]) it was 6. The “response of guanine riboswitch xpt-G17” value with xpt-G17 riboswitch (preliminary screen) was “responded”. Take `Clc1cc(Cl)c(OCC#CI)cc1Cl` [Haloprogin]: the fold induction at 100 µM with xpt-G17 riboswitch (setting [2]) came out at 5.1; in the series on add-G6 riboswitch (setting [3]), 5.9.
